Results: patent US20180237441A1, “Chemical Compounds” (GlaxoSmithKline Intellectual Property (No.2) Limited, priority 2015, published 2018)

Molecular target: T1, PERK (Homo sapiens, UniProt Q9NZJ5)
T1 sequence (Q9NZJ5 30-1116): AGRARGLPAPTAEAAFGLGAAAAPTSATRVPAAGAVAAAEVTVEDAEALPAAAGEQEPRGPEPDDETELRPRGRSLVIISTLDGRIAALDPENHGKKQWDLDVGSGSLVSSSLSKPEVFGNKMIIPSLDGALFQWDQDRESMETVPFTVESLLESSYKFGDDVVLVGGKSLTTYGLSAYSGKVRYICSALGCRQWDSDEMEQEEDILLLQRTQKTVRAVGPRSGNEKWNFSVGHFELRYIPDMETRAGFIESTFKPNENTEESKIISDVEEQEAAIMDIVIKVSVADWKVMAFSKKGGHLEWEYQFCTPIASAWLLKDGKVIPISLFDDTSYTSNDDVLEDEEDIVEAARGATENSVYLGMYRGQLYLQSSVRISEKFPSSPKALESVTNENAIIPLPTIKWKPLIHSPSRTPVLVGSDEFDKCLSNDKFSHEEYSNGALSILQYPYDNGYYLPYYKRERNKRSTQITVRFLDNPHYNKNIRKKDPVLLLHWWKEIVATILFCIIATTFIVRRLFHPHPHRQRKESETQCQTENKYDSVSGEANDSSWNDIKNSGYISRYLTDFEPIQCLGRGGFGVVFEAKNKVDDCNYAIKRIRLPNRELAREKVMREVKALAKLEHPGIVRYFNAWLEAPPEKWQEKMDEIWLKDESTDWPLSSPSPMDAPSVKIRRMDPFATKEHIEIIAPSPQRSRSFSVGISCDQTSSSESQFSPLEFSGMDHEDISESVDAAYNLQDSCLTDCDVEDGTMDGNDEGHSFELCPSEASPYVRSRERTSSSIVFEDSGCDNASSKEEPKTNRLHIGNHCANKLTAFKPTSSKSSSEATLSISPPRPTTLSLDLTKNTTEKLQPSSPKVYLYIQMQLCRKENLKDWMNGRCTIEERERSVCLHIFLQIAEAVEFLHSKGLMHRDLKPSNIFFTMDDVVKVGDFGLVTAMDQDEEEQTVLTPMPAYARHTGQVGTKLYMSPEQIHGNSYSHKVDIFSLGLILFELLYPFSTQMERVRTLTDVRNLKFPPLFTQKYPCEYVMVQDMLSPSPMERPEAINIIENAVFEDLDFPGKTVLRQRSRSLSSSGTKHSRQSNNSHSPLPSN
Assay: PERK enzyme assay (HTRF)
Type: biochemical
Conditions: 500 μM ATP; at least one experimental run; read-out: PERK Enzyme (500 μM ATP) IC50
Description: Compounds of the invention were assayed for PERK enzyme inhibitory activity with modifications to previously reported conditions (Axten et al. J. Med. Chem., 2012, 55, 7193-7207). Briefly, various concentrations of compounds (maximum 1% DMSO) were dispensed into 384-well plates containing GST-PERK enzyme. After 30-60 minutes of compound pre-incubation, ATP and biotin-eIF2α were added and after 60 minutes the reaction was quenched. After 2 hrs, a fluorescence plate reader was used to measure inhibition and IC50s were calculated.
Enzyme Assay Protocol for PKR-Like Endoplasmic Reticulum Kinase (PERK)—HTRF —% Inhibition
Assay Buffer contains HEPES (pH7.5) 10 mM, CHAPS 2 mM, MgCl2 5 mM and DTT 1 mM in water
Detection Buffer contains HEPES (pH7.5) 10 mM and CHAPS 2 mM in water Assay Plate Preparation:
1. Enzyme Preparation: • 4× Enzyme solution was prepared immediately prior to adding to compound plates. • 3 nM of GST-PERK in Assay buffer. Final [PERK] in 10 μl assay volume=0.75 nM
2. Substrate Preparation: • 4× Substrate solution was prepared immediately prior to adding to compound plates. • 4× Substrate solution in assay buffer 2000 μM ATP and 160 nM Biotin-eIF2α • Final [ATP] in 10 μl assay volume=500 μM • Final [biotin-eIF2a] in 10 μl assay volume=40 nM.
3. Quench/Detection Solution: • 16 nM eIF2 Phospho-Antibody • 16 nM Eu anti-Rabbit IgG • 160 nM Streptavidin-APC • 60 mM EDTA • Final concentration in 10 μL assay volume: 4 nM eIF2 Phospho-Antibody, 4 nM Eu anti-Rabbit IgG 40 nM Streptavidin-APC
The activity of compounds in the PERK enzyme assay was determined at PERK Enzyme (500 μM ATP) IC50 (nM).

Row | IC50 [nM] | Molecule
1 | 77.4 | CCN1C(=O)N(c2ccc(-c3cn(C)c4ncnc(N)c34)c(F)c2)CC1c1cc(F)ccc1F (single isomer, unassigned) [Example 2, 1-(4-(4-amino-7-methyl-7H-pyrrolo[2,3-d]pyrimidin-5-yl)-3-fluorophenyl)-4-(2,5-difluorophenyl)-3-ethylimidazolidin-2-one]
2 | 13.8 | CN1C(=O)N(c2ccc(-c3cn(C)c4ncnc(N)c34)c(F)c2)CC1c1ccc(F)cc1F (single isomer, unassigned) [Example 46, 1-(4-(4-amino-7-methyl-7H-pyrrolo[2,3-d]pyrimidin-5-yl)-3-fluorophenyl)-4-(2,4-difluorophenyl)-3-methylimidazolidin-2-one]

Same assay, conditions: PERK Enzyme (500 μM ATP) IC50; at least one experimental run; read-out: PERK Activity

Row | Molecule | IC50 [nM]
3 | 1-(4-(4-amino-2,7-dimethyl-7H- pyrrolo[2,3-d]pyrimidin-5-yl)-3- fluorophenyl)-4-(2,4-difluorophenyl)- 3-trifluoroethyl)imidazolidin-2-one [Example 83] | 100 to 1000
4 | CCN1C(=O)N(c2ccc(-c3cn(C)c4ncnc(N)c34)c(F)c2)CC1c1cc(F)ccc1F (racemic) [Example 1, 1-(4-(4-amino-7-methyl-7H-pyrrolo[2,3-d]pyrimidin-5-yl)-3-fluorophenyl)-4-(2,5-difluorophenyl)-3-ethylimidazolidin-2-one] | 100 to 1000
5 | CCN1C(=O)N(c2ccc(-c3cn(C)c4ncnc(N)c34)c(F)c2)CC1c1cc(F)ccc1F (single isomer, unassigned) [Example 2, 1-(4-(4-amino-7-methyl-7H-pyrrolo[2,3-d]pyrimidin-5-yl)-3-fluorophenyl)-4-(2,5-difluorophenyl)-3-ethylimidazolidin-2-one] | < 100
6 | CCN1C(=O)N(c2ccc(-c3cn(C)c4ncnc(N)c34)c(F)c2)CC1c1cc(F)ccc1F (single isomer, unassigned) [Example 3, 1-(4-(4-amino-7-methyl-7H-pyrrolo[2,3-d]pyrimidin-5-yl)-3-fluorophenyl)-4-(2,5-difluorophenyl)-3-ethylimidazolidin-2-one] | 100 to 1000
7 | Cc1nc(N)c2c(-c3ccc(N4CC(c5ccc(F)cc5F)N(C)C4=O)cc3F)cn(C3CC3)c2n1 (single isomer, unassigned) [Example 8, 1-(4-(4-amino-7-cyclopropyl-2-methyl-7H-pyrrolo[2,3-d]pyrimidin-5-yl)-3-fluorophenyl)-4-(2,4-difluorophenyl)-3-methylimidazolidin-2-one] | < 100
8 | Cc1nc(N)c2c(-c3ccc(N4CC(c5ccc(F)cc5F)N(C)C4=O)cc3F)cn(C3CC3)c2n1 (single isomer, unassigned) [Example 9, 1-(4-(4-amino-7-cyclopropyl-2-methyl-7H-pyrrolo[2,3-d]pyrimidin-5-yl)-3-fluorophenyl)-4-(2,4-difluorophenyl)-3-methylimidazolidin-2-one] | > 1000
9 | Cc1nc(N)c2c(-c3ccc(N4CC(c5ccc(F)cc5F)N(C)C4=O)cc3F)c(C)n(C)c2n1 (single isomer, unassigned) [Example 10, 1-(4-(4-amino-2,6,7-trimethyl-7H-pyrrolo[2,3-d]pyrimidin-5-yl)-3-fluorophenyl)-4-(2,4-difluorophenyl)-3-methylimidazolidin-2-one] | > 1000
10 | Cc1nc(N)c2c(-c3ccc(N4CC(c5ccc(F)cc5F)N(C)C4=O)cc3F)c(C)n(C)c2n1 (single isomer, unassigned) [Example 11, 1-(4-(4-amino-2,6,7-trimethyl-7H-pyrrolo[2,3-d]pyrimidin-5-yl)-3-fluorophenyl)-4-(2,4-difluorophenyl)-3-methylimidazolidin-2-one] | < 100
11 | Cc1nc(N)c2c(-c3ccc(N4CC(c5ccc(F)cc5F)N(C)C4=O)cc3F)nn(C)c2n1 (single isomer, unassigned) [Example 12, 1-(4-(4-amino-1,6-dimethyl-1H-pyrazolo[3,4-d]pyrimidin-3-yl)-3-fluorophenyl)-4-(2,4-difluorophenyl)-3-methylimidazolidin-2-one] | < 100
12 | Cc1nc(N)c2c(-c3ccc(N4CC(c5ccc(F)cc5F)N(C)C4=O)cc3F)nn(C)c2n1 (single isomer, unassigned) [Example 13, 1-(4-(4-amino-1,6-dimethyl-1H-pyrazolo[3,4-d]pyrimidin-3-yl)-3-fluorophenyl)-4-(2,4-difluorophenyl)-3-methylimidazolidin-2-one] | > 1000
13 | Cc1nc(N)c2c(-c3ccc(N4CC(c5cc(F)ccc5F)N(C)C4=O)cc3F)cn(C)c2n1 (single isomer, unassigned) [Example 37, 1-(4-(4-amino-2,7-dimethyl-7H-pyrrolo[2,3-d]pyrimidin-5-yl)-3-fluorophenyl)-4-(2,5-difluorophenyl)-3-methylimidazolidin-2-one] | 100 to 1000
14 | Cc1nc(N)c2c(-c3ccc(N4CC(c5cc(F)ccc5F)N(C)C4=O)cc3F)cn(C)c2n1 (single isomer, unassigned) [Example 38, 1-(4-(4-amino-2,7-dimethyl-7H-pyrrolo[2,3-d]pyrimidin-5-yl)-3-fluorophenyl)-4-(2,5-difluorophenyl)-3-methylimidazolidin-2-one] | > 1000

The next lines start with the values.

Row | IC50 [nM] | Molecule
15 | < 100 | CN1C(=O)N(c2ccc(-c3cn(C4CC4)c4ncnc(N)c34)c(F)c2)CC1c1cc(F)cc(F)c1 (racemic) [Example 175, 1-(4-(4-amino-7-cyclopropyl-7H-pvrrolo[2,3-d]pyrimidin-5-yl)-3-fluorophenyl)-4-(3,5-difluorophenyl)-3-methylimidazolidin-2-one]
16 | < 100 | CCN1C(=O)N(c2ccc(-c3cn(C)c4nc(C)nc(N)c34)c(F)c2)CC1c1cc(F)ccc1F (single isomer, unassigned) [Example 44, 1-(4-(4-amino-2,7-dimethyl-7H-pyrrolo[2,3-d]pyrimidin-5-yl)-3-fluorophenyl)-4-(2,5-difluorophenyl)-3-ethylimidazolidin-2-one]
17 | > 1000 | CCN1C(=O)N(c2ccc(-c3cn(C)c4nc(C)nc(N)c34)c(F)c2)CC1c1cc(F)ccc1F (single isomer, unassigned) [Example 45, 1-(4-(4-amino-2,7-dimethyl-7H-pyrrolo[2,3-d]pyrimidin-5-yl)-3-fluorophenyl)-4-(2,5-difluorophenyl)-3-ethylimidazolidin-2-one]
18 | < 100 | CN1C(=O)N(c2ccc(-c3cn(C)c4ncnc(N)c34)c(F)c2)CC1c1ccc(F)cc1F (single isomer, unassigned) [Example 46, 1-(4-(4-amino-7-methyl-7H-pyrrolo[2,3-d]pyrimidin-5-yl)-3-fluorophenyl)-4-(2,4-difluorophenyl)-3-methylimidazolidin-2-one]
19 | > 1000 | CN1C(=O)N(c2ccc(-c3cn(C)c4ncnc(N)c34)c(F)c2)CC1c1ccc(F)cc1F (single isomer, unassigned) [Example 47, 1-(4-(4-amino-7-methyl-7H-pyrrolo[2,3-d]pyrimidin-5-yl)-3-fluorophenyl)-4-(2,4-difluorophenyl)-3-methylimidazolidin-2-one]
20 | < 100 | CN1C(=O)N(c2ccc(-c3cn(C)c4ncnc(N)c34)c(F)c2)CC1c1cc(F)cc(Cl)c1 (single isomer, unassigned) [Example 51, 1-(4-(4-amino-7-methyl-7H-pyrrolo[2,3-d]pyrimidin-5-yl)-3-fluorophenyl)-4-(3-chloro-5-fluorophenyl)-3-methylimidazolidin-2-one]
21 | 100 to 1000 | CN1C(=O)N(c2ccc(-c3cn(C)c4ncnc(N)c34)c(F)c2)CC1c1cc(F)cc(Cl)c1 (single isomer, unassigned) [Example 52, 1-(4-(4-amino-7-methyl-7H-pyrrolo[2,3-d]pyrimidin-5-yl)-3-fluorophenyl)-4-(3-chloro-5-fluorophenyl)-3-methylimidazolidin-2-one]
